Series [1] relates to BR DEN2 01-01 infection of Huh-7.5. Nature of the series: assay validation with reference compounds, 10-pt DRC of percent infection. The format is cell-based, Dengue virus. On the procedure: (§1) An immunofluorescence assay (IFA) used to detect dengue infection was optimized for the dengue HT/HCA. Briefly, cells were fixed with 4% (w/v) paraformaldehyde (PFA) for 20 min at room temperature (Rm T). PFA-fixed cells were treated with 0.25% (v/v) Triton-X for 20 min at Rm T. DENV-infected cells were detected by probing with 4G2 mAb prepared in blocking buffer: DPBS containing 5% FBS for 30 min at 37°C, followed by AlexaFluor-conjugated goat anti-mouse IgG (H+L) (Invitrogen Molecular Probes, USA) prepared in blocking buffer for 30 min at 37°C. Cell nuclei counterstained with 5 µg/mL 4′,6-diamidino-2-phenylindole (DAPI, Sigma-Aldrich, USA). Two washing cycles of DPBS was done after each step of the IFA. After the final washing, digital images were acquired using a high-throughput confocal fluorescence imaging system (Evotec Technologies High-Throughput Cell Analyzer Opera, Perkin Elmer, USA). The digital images were taken from 3 different fields of each well at 20× magnification.
(§2) Acquired images were analyzed using our in-house developed image-mining platform (IM). This platform is designed to do high-content screening and directly access the database of images that were sequentially analyzed with specially designed algorithms developed as a customized plug-in to the IM platform. The results of all the analyses were stored in a centralized database. […] One channel (DAPI-channel) captures the signal emitted by DAPI-stained nuclei at 450 nm, while the other channel (A488-channel) captures the signal emitted by the AlexaFluor 488 dye bound to the dengue E protein-antibody complexes confined in the cytoplasm of dengue-infected cells at 540 nm. To define the percentage of dengue-infected cells and, conversely the non-infected cells, a modified watershed method was applied. Compared to the original watershed algorithm that uses the morphological gradient image, a weighted gradient image is used for the topographic surface, whose weights are defined as the ridge values computed from the eigen values of the original image. The percentage of non-infected cells, which is also defined as the percent inhibition or percent activity, is derived by using the formula: [1−(A488-positive cells/total cells)]×100%.
(§3) In both validation experiments, Huh-7.5 was mixed with DENV1, DENV2, DENV3 or DENV4 at a M.O.I. of 0.5 or VM only for MOCK-infection and dispensed in designated wells using the Thermo Scientific WellMate automated liquid dispenser. For the first validation experiment, the statistical reliability of the dengue HT/HCA was determined by calculating the Z'-factor for the percent infection or percent inhibition. Briefly, the Z'-factor of a defined parameter is calculated using the formula: 1−[(3σp+3σn)/(|μp−μn|)], where the μp, μn, σp and σn are the means (μ) and standard deviations (σ) of the positive (p) and negative (n) controls. For the second validation experiment, the reference compounds were prepared in 2-fold serial dilutions and dispensed in duplicate wells in the 384-well plate, followed by the Huh-7.5 and DENV mixture (M.O.I. 0.5). Percent infection, percent inhibition, and percent cell number were determined using the customized IM platform plug-in. Scatter-plot distribution was generated using TIBCO Spotfire 4.5.0 (TIBCO Software Inc., Somerville, MA). The ten-point dose-response curves (10-pt DRCs) were plotted using the non-linear regression formula: log (inhibitor) vs. response – variable slope (4 parameters), available in GraphPad Prism 5.04 (GraphPad Software Inc., San Diego, CA). The top and bottom values of the reference compounds were unconstrained when the curve fittings of the 10-pt. DRCs were generated.

Another series deals with Huh-7.5. Description: assay validation with reference compounds, percent cell number in DENV2-infected Huh-7.5. As to conditions: percent cell number normalized against MOCK-infected Huh-7.5, DENV2-infected cells. On the procedure: Acquired images were analyzed using our in-house developed image-mining platform (IM). This platform is designed to do high-content screening and directly access the database of images that were sequentially analyzed with specially designed algorithms developed as a customized plug-in to the IM platform. The results of all the analyses were stored in a centralized database. […] To define the percentage of dengue-infected cells and, conversely the non-infected cells, a modified watershed method was applied. Compared to the original watershed algorithm that uses the morphological gradient image, a weighted gradient image is used for the topographic surface, whose weights are defined as the ridge values computed from the eigen values of the original image. The percentage of non-infected cells, which is also defined as the percent inhibition or percent activity, is derived by using the formula: [1−(A488-positive cells/total cells)]×100%.
as §3, with “The ten-point dose-response curves (10-pt DRCs) were plotted using the non-linear regression formula: log (inhibitor) vs. response – variable slope (4 parameters), available in GraphPad Prism 5.04 (GraphPad Software Inc., San Diego, CA).” left out
Similarly, the percent cell number was normalized based on the measured cell number in MOCK-infected (100% cell number) controls according to the formula: % cell number = (Cmeasured/μCMOCK-infect)×100%, where Cmeasured is the measured cell number in the test well and μCMOCK-infect is the average cell number in the MOCK-infected controls. The statistical validity of the dengue high-throughput screening was determined by calculating for the Z'-factor using the 0.5% DMSO-treatment and MOCK-infected Huh-7.5 as negative and positive controls, respectively. In addition, other parameters, including DRC of a reference compound, were used to evaluate the assay performance.

The test system of series [2] is DENV3 (BR DEN3 290-02) infection in Huh-7.5. Description: image-based dengue HT/HCA, 10-pt dose-response hit confirmation, DENV3. The series is classed as cell-based. The following applies: Dengue virus, read-out: EC50 DENV3. On the procedure: as §1, §2
(§4) The BioFocus kinase inhibitor library were screened against DENV1, DEN2, DENV3 and DENV4 at 10 µM in 0.5% (v/v) DMSO. MOCK-infected Huh-7.5 and IFN-α2A (500 U/mL) were used as positive controls, and the 0.5% DMSO vehicle was used as negative control. Four sets of 15 384-well plates (13 plates designated for test compounds and 2 plates designated for DMSO vehicle control) were used for the primary screening of the BioFocus kinase inhibitor library against each dengue serotype. Each of the 4,000 compounds in the library was tested in single wells. For data normalization and quality control of the screening, each test compound plate contained 16 replicates of the positive and negative controls. After dispensing the test compounds IFN-α2A and DMSO vehicle in the 384-well plates, Huh-7.5 was mixed with DENV1, DENV2, DENV3, or DENV4 to achieve a M.O.I. of 0.5 and dispensed at 5×10^3 cells/well using the Thermo Scientific WellMate automated liquid dispenser. For the MOCK-infected Huh-7.5, the cells were mixed with VM and dispensed under the same conditions as previously stated. Virus infection in the presence of the compounds proceeded at 37°C, 5% CO2 for 96 hrs. Compound activity based on percent inhibition and cell toxicity was assessed by IFA and IM analysis as described above. Scatter-plot distribution of the entire screening was generated using TIBCO Spotfire 4.5.0 (TIBCO Software Inc., Somerville, MA).
(§5) The calculated activity was normalized to a percent inhibition (PI) based on the MOCK-infected cells (100% activity, or zero infection) and dengue-infected cells (0% activity, or maximum measured infection percentage) controls according to the formula: [drawing 1] where: PImeasured - percent inhibition of test compound […]

Series [3] relates to DENV1 (Den1 BR/90) infection in Huh-7.5. Description: image-based dengue HT/HCA, 10-pt dose-response hit confirmation, DENV1. The series is classed as cell-based. The following applies: Dengue virus, read-out: EC50 DENV1. On the procedure: as §1, §2, §4, §5
Series [4] in a line: compound toxicity, resazurin reduction assay in uninfected Huh-7.5. The series is classed as cell-based. The following applies: human, uninfected Huh-7.5 cells, Huh-7.5 without viral infection, 10-pt DRC. The method, then:
The hits identified from the primary screening were also tested at 10 µM against CHIKV-118-GFP infection in HuH-7 cells and evaluated by resazurin reduction assay (RRA). Resazurin (7-Hydroxy-3H-phenoxazin-3-one 10-oxide) is reduced to the red fluorescent resorufin by redox enzymes produced by viable cells, and is a good indication of metabolic capacity, and by extension cell viability. The amount of converted resorufin was measured as relative fluorescence readout (RFU) at excitation/emission of 531/572 nm using a fluorescence spectrophotometer (Victor^3 V Spectrophotometer, Perkin Elmer, USA). Briefly, cells were inoculated with CHIKV-118-GFP at an M.O.I. of 0.5 and seeded in 384-well plates containing reference and primary hit compounds and incubated under humidified conditions for 72 hrs at 37°C. Resazurin solution was added to a final concentration of 10 µM and further incubated for another 12 hrs prior to measurement of RFU. The percent activity of the compounds, reflected by the percent cell viability, was quantified by normalizing against the RFUs of MOCK-infected cells and CHIKV-118-GFP-infected cells. Compounds resulting in normalized RFU ≥70% were considered as positive hits for anti-CHIKV activity.
To confirm the compound activity against dengue viruses, the selected hits from the primary screening were tested in a 10-pt. DRC (2-fold serial dilution from 50 µM) using the same assay described for the dengue HT/HCA. Each concentration of the hit compounds was tested in duplicate wells. Data generated from image analysis of the 10-pt. DRC was plotted and analyzed using the non-linear regression formula: log (inhibitor) vs. response – […] (4 parameters) in GraphPad Prism 5.04. […] Compound toxicity was determined by testing the hit compounds in a 10-pt. DRC against Huh-7.5 in the absence of viral infection and measuring the cell viability using resazurin reduction assay as described above. […] Confirmed hits were selected based on their Selectivity Index (SI), a dimensionless value that indicates the magnitude between cytotoxic concentration and effective concentration, and is calculated as: SI = CC50/EC50.
In general terms: Alamar Blue is a resazurin reagent that responds to reducing activity.

The test system of series [5] is DENV2 (BR DEN2 01-01) infection in Huh-7.5. Description: image-based dengue HT/HCA, 10-pt dose-response hit confirmation, DENV2. The format is cell-based. The following applies: Dengue virus, read-out: EC50 DENV2. On the procedure:
as §1, §2, §4, §5

For series [6], the system named is DENV4 (DEN4 TVP-360) infection in Huh-7.5. Description: image-based dengue HT/HCA, 10-pt dose-response hit confirmation, DENV4. The format is cell-based. As to conditions: Dengue virus, read-out: EC50 DENV4. On the procedure: as §1, §2, §4, §5
The mark [7] stands for this setting: DENV3, Huh7.5, Huh-7.5, M.O.I. 0.5, 96 hrs.
The mark [8] stands for this setting: DENV1, Huh7.5, Huh-7.5, M.O.I. 0.5, 96 hrs.
[9] abbreviates: DENV2, Huh7.5, Huh-7.5, M.O.I. 0.5, 96 hrs.
Setting [10] is: DENV4, Huh7.5, Huh-7.5, M.O.I. 0.5, 96 hrs.

Read-outs that look alike come from different tables or passages of the source.

Usually IC50 stands for the midpoint of a concentration-inhibition curve. The term CC50 denotes the concentration that lowers cell viability or growth by half. Turning to `C=CCNC(=O)c1cc([N+](=O)[O-])cc2c(=O)[nH]c(Nc3ccc(Cl)c(Cl)c3)nc12` [AZ 10417808], in series [1] (percent infection normalized against DENV2-infected Huh-7.5, M.O.I. 0.5, read-out: IC50), the IC50 was determined as 82.3 µM. Moreover, it took 148 µM to reach half-maximal cytotoxicity with Huh-7.5 (CC50).
Broadly, the EC50 is the concentration giving half of the maximal effect. As to `NC(Cc1ccc(Cl)cc1)c1csc(Nc2ccc(S(N)(=O)=O)cc2)n1` (stereo not shown) [CND0968], the 50% effective concentration (EC50) in series [2] (setting [7]) was 6.2 µM; in series [3] (setting [8]), greater than 25 µM; in series [5] (setting [9]) it was 6.4 µM; in series [6] (setting [10]), 1.1 µM. Besides, in series [4], half-maximal cytotoxicity (CC50 at 72 h) was put at 29 µM.
In the same order, the values of `CCCc1cnc(Nc2nc(C(N)Cc3ccccc3)cs2)nc1` (stereo not shown) [CND0975] are greater than 50 µM, 1 µM, 5.5 µM, greater than 50 µM and 44 µM.
On to `COc1ccc(CC(N)c2csc(Nc3nccc(NCc4ccco4)n3)n2)cc1` (stereo not shown) [CND1020], for which the EC50 in series [2] (DENV3, Huh7.5, 96 h) was found to be 3.4 µM; in series [3] (setting [8]), 3.9 µM; in series [5] (DENV2, Huh7.5, 96 h) it was 13 µM; in series [6] (DENV4, Huh7.5, 96 h), 19 µM. This molecule also had a CC50 at 72 h in series [4] of 25 µM.
`NC(Cc1ccccc1)c1csc(Nc2ccccn2)n1` (stereo not shown) [CND1043]: the EC50 in series [2] (setting [7]) was 5.7 µM; in series [3] (Huh7.5, 96 h), 4.1 µM; in series [5] (setting [9]), 3.1 µM; in series [6] (setting [10]), 6.9 µM. The molecule also showed a CC50 at 72 h in series [4] of 43 µM.
In the case of `COc1cccc(Nc2nc(C(N)CC(C)C)cs2)n1` (stereo not shown) [CND1057], the EC50 in series [2] (setting [7]) was found to be 2.9 µM; in series [3] (setting [8]), 3.3 µM; in series [5] (setting [9]), 1 µM; in series [6] (setting [10]), 10 µM. The molecule further showed a cytotoxic concentration (CC50) at 72 h in series [4] of 23 µM.
In the same order, the values of `NC(Cc1ccc(C(F)(F)F)cc1)c1csc(Nc2ncccn2)n1` (stereo not shown) [CND1081] are 3.1 µM, 1.5 µM, 2.1 µM, 12 µM and greater than 100 µM.
For `NC(Cc1ccc(C(F)(F)F)cc1)c1csc(Nc2nccc(NCCCO)n2)n1` (stereo not shown) [CND1172], in that order: 4.8 µM, 7.3 µM, 10.4 µM, 7.5 µM and 15 µM.
In the same order, the values of `CS(=O)(=O)c1cnc(Nc2nc(C(N)Cc3ccc(Cl)cc3)cs2)nc1` (stereo not shown) [CND1244] are 1.6 µM, 1.7 µM, 2.9 µM, 4.4 µM and 21 µM.
Molecule `CCN(CC)CCCC(C)Nc1ccnc2cc(Cl)ccc12` (stereo not shown) [Chloroquine] gave an IC50 in series [1] (Dengue virus, DENV2, Huh7.5) of 17.4 µM.

The values are drawn from article PMC3578765 (PLoS Neglected Tropical Diseases, 2013).
